Laboratory results from US20230346827A1 (priority 2020, published 2023).

Assays:
human PBMC = experiment: Stimulated IL-6 release from human PBMC (ELISA); format: cell-based; details: 24 h
Method: Peripheral blood mononuclear cells (PBMC) were isolated from healthy donors through Ficoll-Paque PLUS (GE Healthcare; 11778538) density centrifugation. PBMC were cultured at 2×10^5 cells/well in the absence (unstimulated PBS vehicle controls) or presence of stimulation (LPS, peptidoglycan, pokeweed mitogen, PHA-L, CpG + IL-15, or Cytostim) in the absence (vehicle) or presence of LMW-DS (Tikomed AB, Viken, Sweden, WO 2016/076780) at three concentrations; 60 µg/ml, 200 µg/ml and 600 µg/ml for 24 hours at 37° C., 5% CO2. Following centrifugation, cell culture supernatants were removed and stored at -20° C. awaiting analysis for IL-6 by ELISA. Levels of IL-6 were quantified in the supernatant by ELISA (R&D systems; DY206) according to manufacturer’s instructions.

[1] = tested on: Human umbilical vein endothelial cells (HUVECs); experiment: Gene expression array and pathway analysis, HUVECs, LMW-DS 0.01 mg/ml 48 h; format: cell-based; details: for number of genes: abolished nutrient effect / number of genes: total / number of genes: enhanced response to nutrients / number of genes: not different from control / Activation z-score / Predicted activation state relative D2 control: HUVECs; for Activation z-score / Predicted activation state relative D2 control: D2 LMW-DS treatment
Method: For each cell line, n=8 × 25 cm^2 culture flasks were set up. Two flasks were harvested for each cell type on the day of treatment (24 hours after seeding). This represents the Day0 time point. From the remaining flasks, three flasks were treated with Control Medium and three were treated with Culture Medium (CM) containing LMW-DS to give a final concentration of 0.01 mg/ml. Cells from the treated flasks were collected after 48 hours. Therefore the collected data represent (a) untreated cells (Day0 Controls and Day2 Controls) and (b) cells treated with LMW-DS (ILB®, Tikomed AB, Viken, Sweden, WO 2016/076780) for 48 hours (Day2 LMW-DS treated).
Medium 200 + Large Vessel Endothelial Supplement (M200+LVES) additive (1:50) was prepared and pre-warmed to 37° C. Cells were thawed in a 37° C. water bath for no longer than 2 min and gently transferred into a 50 ml tube containing 20 ml Dulbecco’s Modified Eagle Medium, Nutrient Mixture F-12 (DMEM-F12). The cell suspension was mixed by inverting the tube carefully twice. Cells were spun at 400 × g for 10 minutes. Supernatant removed and cells were re-suspended in 10 ml of culture media (M200+LVES additive).
Cells were counted with the Cellometer. 1,000,000 cells/flask were seeded in 25 cm^2 flasks (n=8) and medium was topped up to a total of 5 ml per flask. Cells were incubated at 37° C. with 5% CO2. Cells were allowed to settle for 24 hours before LMW-DS treatment.
LMW-DS was provided at a stock concentration of 20 mg/ml and was kept in a temperature monitored refrigerator at 4° C. A fresh 100x LMW-DS stock (1.0 mg/ml) was prepared in sterile DMEM-F12. The concentrated drug stock was sterile filtered and added to the respective culture media (19.6 ml CM and 0.4 ml LMW-DS stock solution). The Control was made using 19.6 ml CM and 0.4 ml of DMEM-F12. LMW-DS and CM were added to the respective flasks (5 ml each) to reach the 0.01 mg/ml concentration of LMW-DS in each dish with a total of 10 ml CM each.
CM was aspirated into a clean and labelled 15 ml Falcon tube. The flasks (without culture medium) were placed into the -80° C. freezer for 30 minutes. The CM in the Falcon tubes was spun at 3000 x g for 5 minutes. Supernatant was removed and the small pellet was re-suspended in 2.5 ml Trizol:Water (4:1) solution at room temperature (RT, ~22° C.).
Two aliquots of 1 ml lysate were removed from each sample and 200 µl of chloroform was added to each (0.2 ml of chloroform per 1 ml of TRIzol Reagent used during the cell lysis step) and the tube was shaken vigorously. Samples were stored at RT for 2-3 minutes and subsequently centrifuged at 12,000 x g for 15 minutes at 4° C.
The RNA was precipitated from the aqueous phase by adding an equal amount of 100% ethanol. The precipitated RNA was fixed onto a Spin Cartridge, washed twice and dried. The RNA was eluted in 50 µl warm RNase-Free Water. The amount and quality of the purified RNA was measured by Nanodrop. The RNA was stored at -80° C. before transfer to Source Bioscience for Array analysis.
The expression data were downloaded into separate files for each cell line. The ‘Background corrected’ expression is the data from the “gProcessedSignal” of the arrays that is the result of the background signal extracted from the actual signal of the relevant probe. This is the most often used variable in array analysis. The background corrected signal was log2 transformed for all samples for statistical analysis. To reduce the false discovery rate in the samples, the signals that were below ‘expression level’ were removed. The ‘below expression’ level was set at 5 for the log2 transformed expression values.
Based on the expression pattern of the Control probes on each array it was decided to carry out Median Centering for all arrays before analysis to reduce the variability of the results. […]

## sodium salt of dextran sulfate [LMW-DS]
Human PBMC; CpG 0.2 µM + IL-15, LMW-DS 60-600 µg/ml
  IL-6 release: not generally impacted
Human PBMC; Cytostim 10 µl/ml, LMW-DS 60-600 µg/ml
  IL-6 release: not generally impacted
Human PBMC; LPS 0.01 ng/ml, LMW-DS 60, 200, 600 µg/ml
  IL-6 release: concentration dependent and statistically significant reduction
Human PBMC; PHA-L 1.0 µg/ml, LMW-DS 60-600 µg/ml
  IL-6 release: inhibited significantly in a concentration-dependent manner
Human PBMC; higher concentration of CpG (1.0 µM) + IL-15, LMW-DS 60-600 µg/ml
  IL-6 release: no general impact
Human PBMC; higher concentration of Cytostim (30 µl/ml), LMW-DS 60-600 µg/ml
  IL-6 release: no general impact
Human PBMC; peptidoglycan 30 ng/ml, LMW-DS 60-600 µg/ml
  IL-6 release: little evidence
Human PBMC; pokeweed mitogen 1.0 µg/ml, LMW-DS 60-600 µg/ml
  IL-6 release: not impacted generally
[1]
  genes regulating cell attachment (of 197) differentially regulated: none
[1]; D0 control to D2 LMW-DS treated
  number of differentially expressed genes: 1779
[1]; D2 control to D2 LMW-DS treated
  number of differentially expressed genes: 76
[1]; no effect
  number of genes: abolished nutrient effect: 67
  number of genes: total: 67
[1]; significant downregulation
  number of genes: abolished nutrient effect: 4
  number of genes: enhanced response to nutrients: 120
  number of genes: not different from control: 167
  number of genes: total: 291
[1]; significant upregulation
  number of genes: abolished nutrient effect: 11
  number of genes: enhanced response to nutrients: 229
  number of genes: not different from control: 1326
  number of genes: total: 1566
[1]; total
  number of genes: abolished nutrient effect: 82
  number of genes: enhanced response to nutrients: 349
  number of genes: not different from control: 1493
  number of genes: total: 1924
[1]; pathway analysis of gene expression
  modulation of the effects of oxidative stress on mitochondria: no significant modulation
[1]; two days
  genes altered in Control cultures with no changes in LMW-DS treated cultures: 67
  genes downregulated by growth factors, downregulation stronger with LMW-DS: 120
  genes downregulated in control cultures, upregulated in LMW-DS treated cultures: 11
  genes increased in control cultures, downregulated in LMW-DS treated cultures: 4
  genes upregulated in Control cultures, upregulation stronger with LMW-DS: 229
[1]; upstream regulator HGF
  Activation z-score: 3.194
  Predicted activation state relative D2 control: Activated relative to control
[1]; upstream regulator TGFβ1
  Activation z-score: 1.429
  Predicted activation state relative D2 control: Activated relative to control
[1]; upstream regulator VEGF
  Activation z-score: 3.432
  Predicted activation state relative D2 control: Activated relative to control
